# Where two headings read alike, the source gives them in different places.
# Experiments:
# [1] = system: DehaloR̂2 cultures; assay: TCC and TCS exposure: TCE reductive dechlorination by DehaloR̂2 culture; format: cell-based; details: for TCE completely dechlorinated into ethene in the 22-day period in DehaloR̂2: 1.5 μM TCC (32 μmol TCE) or 35 μM TCS
# Description: Cultures. Two cultures were used in this study: 1) Bio-Dechlor INOCULUM, which was obtained from Dr. Frank Loffler's laboratory at Georgia Tech; 2) DehaloR̂2 culture, developed from a sediment microcosm from the Chesapeake Bay “sediment core-D” with three-times continuous transfers described in Example 1.
# TCC and TCS Exposure. For the TCC and TCS test, 1 ml ATCC mixed vitamin solution (Catalog No. MD-VS), 0.25 ml 20 mg/L vitamin B12 solution and 1 ml 500 mM lactate solution were filtered with a 0.2 μm sterile filter and added to 92.5 ml sterile anaerobic media in 160 ml serum bottles, and then 5 ml of culture was transferred into this fresh media. Lactate served as electron donor and carbon source. Fifty μl TCE stock solutions ([…] in methanol) were injected into the media with 500-μl Hamilton air-tight syringe (Reno, Nev.), and the final TCE concentration was 35 μmol per serum bottle. Ten μl TCC or TCS stock solutions in methanol or pure methanol was injected with 10 μl Hamilton air-tight syringe (Reno, Nev.) into the serum bottle. Three concentration levels of TCC or TCS stock solutions were made and listed in Table 8 to make the three final concentration levels of TCC or TCS. The middle concentration level of TCC and TCS in cultures was set according to the solubility of TCC and TCS at 20° C. The highest concentration of TCC and TCS is 10 times the solubility of TCC and TCS at 20° C., and the lowest concentration of TCC and TCS is 10% the solubility of TCC and TCS at 20° C.
# The total aqueous volume in 160-ml serum bottle was 100 ml. Four BDI and four DehaloR̂2 cultures were generated for each concentration of TCC or TCS, and three of them were used for TCE dechlorination analysis and the other one was used for DNA extractions and molecular analysis. The error bars in the figures are the standard deviations for three independent cultures under the same conditions.
# The TCC and TCS tests on DehaloR̂2 culture were only dosed with the highest and middle concentrations of TCC and TCS, which are 1.5 μM TCC, 0.15 μM TCC, 35 μM TCS and 3.5 μM TCS, respectively.
# All cultures were stored in the dark and incubated at 30° C.
# Analytical Methods. The concentrations of TCE and their reductive-dechlorinating byproducts, 1,1-DCE, cis-DCE, trans-DCE, VC, and ethene were quantified by gas chromatography with a flame ionization detector (GC-FID).
# 200 μl headspace gas samples were withdrawn from 160 ml serum bottle with 500 μl gas-tight syringes (Hamilton Company, Reno, Nev.) and analyzed by a Shimadzu GC-2010 (Columbia, Md.) with an Rt™-QSPLOT capillary column (30 m×0.32 mm×10 μm, Restek, Bellefonte, Pa.) and a flame ionization detector (FID). The initial oven temperature was 110° C. and was held constant for 5 min. Then the temperature was raised with a gradient of 10° C./min to 150° C., a second gradient at 20° C./min to 200° C., and a third gradient of 5° C./min to 220° C. At the end of this gradient, the oven temperature was held constant at 220° C. for 5 min. The temperature of FID and injector were 240° C. Ultra high purity helium was the carrier gas for the GC. Ultra high purity hydrogen and zero grade air were used for the FID.
# Calibration curves for chlorinated compounds were determined based on the known mass of PCE, TCE, 1,1-DCE, cis-DCE and trans-DCE added to 160 ml serum bottles containing 100 ml of distilled-deionized water and equilibrated at 25° C. overnight. The contents were then analyzed using the Shimadzu GC-FID. Different volumes of 100 ppm and 1000 ppm VC and ethene gas were injected directly into GC using the 500 μl airtight syringe to make their calibration curves. The aqueous concentrations of PCE, TCE and their reaction products were calculated by using reported Henry's constants on the EPA website (Washington and Weaver, 2006)
# [2] = system: P. aeruginosa; details: cited from earlier work
# [3] = system: Gram-positive bacteria, such as staphylococcus; details: cited from earlier work
# [4] = system: aquatic organisms; details: according to PBT Profiler; cited from earlier work
# [5] = system: MRSA; details: cited from earlier work
# [6] = system: Gram-negative species and fungi; details: cited from earlier work
# [7] = cited from earlier work
# [8] = system: E. coli; details: cited from earlier work
# [9] = system: algae, aquatic invertebrates and fish; details: cited from earlier work
# [10] = system: Scenedesmus subspicatus; details: cited from earlier work
# [11] = system: North American bullfrog; details: alters thyroid hormone-mediated postembryonic development; cited from earlier work
# [12] = continuous-flow activated sludge, 0.5 to 2 mg/L TCS (Stasinakis et al., 2007); cited from earlier work
# [13] = system: Rainbow trout; details: in vivo; cited from earlier work
# [14] = highest level: 1.5 μM TCC or 35 μM TCS
# [15] = middle level: 0.15 μM TCC or 3.5 μM TCS
smiles,measurement,setting,value
"O=C(Nc1ccc(Cl)cc1)Nc1ccc(Cl)c(Cl)c1 [TCC, 3-(4-chlorophenyl)-1-(3,4-dichlorphenyl) urea]",time for complete TCE reductive dechlorination in DehaloR̂2,[1]; 0.15 μM TCC,approximately 22 days
same,time for reductive dechlorination of 80% of 33 μmol TCE into ethene in DehaloR̂2,[1]; 0.15 μM TCC,11 days
same,time for reductive dechlorination of TCE to cis-DCE in DehaloR̂2,[1]; 1.5 μM TCC,about 4 days
same,TCE completely dechlorinated into ethene in the 22-day period in DehaloR̂2,[1],About 46%
same,Maximum formation rate Ethene in DehaloR̂2 (SCD),[1]; highest level: 1.5 μM TCC,1.08 μmol vial^−1 day^−1
same,Maximum utilization rate VC in DehaloR̂2 (SCD),[1]; highest level: 1.5 μM TCC,1.48 μmol vial^−1 day^−1
same,Maximum utilization rate cis-DCE in DehaloR̂2 (SCD),[1]; highest level: 1.5 μM TCC,9.55 μmol vial^−1 day^−1
same,Maximum formation rate VC in DehaloR̂2 (SCD),[1]; [14],8.12 μmol vial^−1 day^−1
same,Maximum formation rate cis-DCE in DehaloR̂2 (SCD),[1]; [14],12.83 μmol vial^−1 day^−1
same,Maximum utilization rate TCE in DehaloR̂2 (SCD),[1]; [14],9.54 μmol vial^−1 day^−1
same,effect on TCE reductive dechlorination in DehaloR̂2 cultures,[1]; [14],significantly inhibited TCE reductive dechlorination
same,Maximum formation rate Ethene in DehaloR̂2 (SCD),[1]; [15],8.54 μmol vial^−1 day^−1
same,Maximum formation rate VC in DehaloR̂2 (SCD),[1]; [15],6.72 μmol vial^−1 day^−1
same,Maximum formation rate cis-DCE in DehaloR̂2 (SCD),[1]; [15],23.87 μmol vial^−1 day^−1
same,Maximum utilization rate TCE in DehaloR̂2 (SCD),[1]; [15],20.45 μmol vial^−1 day^−1
same,Maximum utilization rate VC in DehaloR̂2 (SCD),[1]; [15],6.01 μmol vial^−1 day^−1
same,Maximum utilization rate cis-DCE in DehaloR̂2 (SCD),[1]; [15],6.40 μmol vial^−1 day^−1
same,effect on TCE reductive dechlorination in DehaloR̂2 cultures,[1]; [15],slowed down the TCE reductive dechlorination process
same,activity in MIC experiments,[2],not
same,concentration that effectively inhibits Gram-positive bacteria,[3],100 to 200 µg/L
same,concentration toxic to aquatic organisms,[4],90000 ng/mL
same,activity in MIC experiments,[5],showed activity
same,concentration needed to inhibit Gram-negative species and fungi,[6],1000 mg/L
same,biodegradation,[7]; TCC 20 μg/L,60%
same,biodegradation,[7]; TCC 2000 μg/L,70%
same,biodegradation of the dichloroaniline ring,[7]; bench scale CFAS system,25.9%
same,biodegradation of the p-chloroaniline ring,[7]; bench scale CFAS system,56%
same,activity in MIC experiments,[8],not
same,Predicted No Effect Concentration (PNEC),[9],0.146 µg/L
same,ratio of PEC/PNEC,[9],0.009 to 0.34
"Oc1cc(Cl)ccc1Oc1ccc(Cl)cc1Cl [TCS, 5-chloro-2-[2,4-dichloro-phenoxy]-phenol]",TCE completely dechlorinated into ethene in the 22-day period in DehaloR̂2,[1],no ethene was produced
same,time for TCE reductive dechlorination to cis-DCE in DehaloR̂2,[1]; 3.5 μM TCS,about 4 days
same,TCE completely dechlorinated into ethene at the 18th day in DehaloR̂2,"[1]; 3.5 μM TCS, 34 μmol TCE",79%
same,TCE transformed into VC within 22 days in DehaloR̂2,[1]; 35 μM TCS,1%
same,Maximum formation rate VC in DehaloR̂2 (SCD),[1]; [14],0.11 μmol vial^−1 day^−1
same,Maximum formation rate cis-DCE in DehaloR̂2 (SCD),[1]; [14],5.59 μmol vial^−1 day^−1
same,Maximum utilization rate TCE in DehaloR̂2 (SCD),[1]; [14],5.90 μmol vial^−1 day^−1
same,effect on TCE reductive dechlorination in DehaloR̂2 cultures,[1]; [14],significantly inhibited TCE reductive dechlorination
same,Maximum formation rate Ethene in DehaloR̂2 (SCD),[1]; [15],3.11 μmol vial^−1 day^−1
same,Maximum formation rate VC in DehaloR̂2 (SCD),[1]; [15],8.99 μmol vial^−1 day^−1
same,Maximum formation rate cis-DCE in DehaloR̂2 (SCD),[1]; [15],8.79 μmol vial^−1 day^−1
same,Maximum utilization rate TCE in DehaloR̂2 (SCD),[1]; [15],13.47 μmol vial^−1 day^−1
same,Maximum utilization rate VC in DehaloR̂2 (SCD),[1]; [15],1.96 μmol vial^−1 day^−1
same,Maximum utilization rate cis-DCE in DehaloR̂2 (SCD),[1]; [15],9.10 μmol vial^−1 day^−1
same,effect on TCE reductive dechlorination in DehaloR̂2 cultures,[1]; [15],slowed down the TCE reductive dechlorination process
same,96-h effective concentration (EC50) for growth,[10],0.0014 µg/mL
same,96-h no-observed effect concentration (NOEC),[10],0.69 µg/L
same,concentration acting as an endocrine disruptor,[11],0.15 ± 0.03 ng/mL
same,removed by biodegradation and sorption,[12],90%
same,NOEC,[13],34 µg/L
same,median EC50,[13],0.35 µg/mL

# — patent publication US20120178147A1, “MICROBIAL CULTURES AND METHODS FOR ANAEROBIC BIOREMEDIATION” (priority 2009, published 2012)
